Publication PMC5820429 (Influenza and Other Respiratory Viruses, 2018)

Parameters: species or system patients
Conditions: in vivo

Structure (SMILES): CCOC(=O)C1=C[C@@H](OC(CC)CC)[C@H](NC(C)=O)[C@@H](N)C1 [oseltamivir]
- Time to alleviation of symptoms, shorter in treated vs non‐treated patients: 1 days
